According to US7141533B2, “Hetaryl-substituted heterocycles” (Bayer CropScience AG, priority 2000, dated 2006):

Tests used:
[1] = logP (HPLC; acetonitrile); type: physicochemical; details: pH 2
Source text: Yield: 2.4 g ( ? 41.62% of theory), logP (acidic) 4.54 (HPLC; acetonitrile).

[2] = system: larvae of the mustard beetle (Phaedon cochleariae); test: Phaedon larvae test; type: in vivo; details: cabbage leaves dipped
Protocol: (§1) [table] To produce a suitable preparation of active compound, 1 part by weight of active compound is mixed with the stated amounts of solvent and emulsifier, and the concentrate is diluted with emulsifier-containing water to the desired concentration. Cabbage leaves (Brassica oleracea) are treated by being dipped into the preparation of active compound of the desired concentration and are populated with the larvae of the mustard beetle (Phaedon cochleariae) while the leaves are still moist. After the desired period of time, the kill in % is determined. 100% means that all beetle larvae have been killed; 0% means that none of the beetle larvae have been killed.

[3] = system: caterpillars of the army worm (Spodoptera frugiperda); test: Spodoptera frugiperda test; type: in vivo; details: cabbage leaves dipped
Protocol: as §1, with “caterpillars” for “the larvae”, “army worm (Spodoptera frugiperda)” for “mustard beetle (Phaedon cochleariae)”, “caterpillars” for “beetle larvae”

Sinapis = test: Post-emergence test; type: in vivo; details: 250 g ai/ha, after three weeks
Protocol: (§2) [table] To produce a suitable preparation of active compound, 1 part by weight of active compound is mixed with the stated amount of solvent, the stated amount of emulsifier is added and the concentrate is diluted with water to the desired concentration. Test plants of a height of 5 to 15 cm are sprayed with the preparation of active compound such that the particular amounts of active compound desired are applied per unit area. The concentration of the spray liquor is chosen such that the particular amounts of active compound desired are applied in 1000 1 of water/ha. After three weeks, the degree of damage to the plants is rated in % damage in comparison to the development of the untreated control. [table]

Echinochloa = test: Post-emergence test; type: in vivo; details: after three weeks
Protocol: as §2

Avena fatua [4] = test: Post-emergence test; type: in vivo; details: after three weeks
Protocol: as §2

Alopecurus = test: Post-emergence test; type: in vivo; details: after three weeks
Protocol: as §2

Amaranthus = test: Post-emergence test; type: in vivo; details: 250 g ai/ha, after three weeks
Protocol: as §2

[5] = system: greenhouse red spider mite (Tetranychus urticae); test: Tetranychus test (OP-resistant/dip treatment); type: in vivo; details: bean plants dipped, OP-resistant
Protocol: [table] To produce a suitable preparation of active compound, 1 part by weight of active compound is mixed with the stated amounts of solvent and emulsifier, and the concentrate is diluted with emulsifier-containing water to the desired concentration. Bean plants (Phaseolus vulgaris) which are heavily infested by all stages of the greenhouse red spider mite (Tetranychus urticae) are dipped into a preparation of active compound of the desired concentration. After the desired period of time, the effect in % is determined. 100% means that all spider mites have been killed. 0% means that none of the spider mites have been killed.

[6] = system: peach aphid (Myzus persicae); test: Myzus test; type: in vivo; details: cabbage leaves dipped
Protocol: as §1, with “oleracea) which are heavily infested by the peach aphid (Myzus persicae)” for “oleracea)”, “concentration.” for “concentration and are populated with the larvae of the mustard beetle (Phaedon cochleariae) while the leaves are still moist.”, “aphids” for “beetle larvae”

sugar beet [7] = test: Post-emergence test; type: in vivo; details: after three weeks
Protocol: as §2

Digitaria = test: Post-emergence test; type: in vivo; details: after three weeks
Protocol: as §2

Setaria [8] = test: Post-emergence test; type: in vivo; details: 250 g ai/ha, after three weeks
Protocol: as §2

Abutilon = test: Post-emergence test; type: in vivo; details: 250 g ai/ha, after three weeks
Protocol: as §2

Setaria [9] = test: Pre-emergence test; type: in vivo; details: 250 g ai/ha, after three weeks
Protocol: (§3) [table] To produce a suitable preparation of active compound, 1 part by weight of active compound is mixed with the stated amount of solvent, the stated amount of emulsifier is added and the concentrate is diluted with water to the desired concentration. Seeds of the test plants are sown in normal soil. After about 24 hours, the soil is sprayed with the preparation of active compound such that the particular amounts of active compound desired are applied per unit area. The concentration of the spray liquor is chosen such that the particular amounts of active compound desired are applied in 1000 1 of water/ha. After three weeks, the degree of damage to the plants is rated in % damage in comparison to the development of the untreated control. [table]

Bromus = test: Pre-emergence test; type: in vivo; details: 250 g ai/ha, after three weeks
Protocol: as §3

Lolium = test: Pre-emergence test; type: in vivo; details: 250 g ai/ha, after three weeks
Protocol: as §3

oilseed rape = test: Pre-emergence test; type: in vivo; details: 250 g ai/ha, after three weeks
Protocol: as §3

Avena fatua [10] = test: Pre-emergence test; type: in vivo; details: 250 g ai/ha, after three weeks
Protocol: as §3

sugar beet [11] = test: Pre-emergence test; type: in vivo; details: 250 g ai/ha, after three weeks
Protocol: as §3

Meloidogyne incognita = test: Meloidogyne test; type: in vivo; details: Meloidogyne incognita egg/larvae on lettuce in sand
Protocol: [table] To produce a suitable preparation of active compound, 1 part by weight of active compound is mixed with the stated amounts of solvent and emulsifier, and the concentrate is diluted with water to the desired concentration. Containers are filled with sand, solution of active compound, Meloidogyne incognita egg/larvae suspension and lettuce seeds. The lettuce seeds germinate and the plants develop. On the roots, galls are formed. After the desired period of time, the nematicidal action in % is determined using the formation of galls as a measure. 100% means that no galls have been found; 0% means that the number of galls on the treated plants corresponds to that on the untreated control.

Soya bean = test: Post-emergence test; type: in vivo; details: 250 g ai/ha, after three weeks
Protocol: as §2

SMILES	kill of beetle larvae [2]	kill of caterpillars [3]	% damage Echinochloa (Echinochloa; 250 g ai/ha) [%]	% damage Avena fatua (Avena fatua [4]; 250 g ai/ha) [%]	% damage Alopecurus (Alopecurus; 250 g ai/ha) [%]	% damage Amaranthus (Amaranthus) [%]	effect on spider mites [5]	also measured
CCOC(=O)C(C)(C)OC(=O)Cc1nc(-c2ccc(Cl)cc2)sc1C [III-A-2]	–	–	–	–	–	–	–	logP (pH2) [1]: 4.53
Cc1sc(-c2ccc(Cl)cc2)nc1C1=C(O)C2(CCC(C)CC2)NC1=O (stereo not shown) [Example I-1-A-a-1]	good activity	good activity	95	80	80	70	–	% damage Sinapis (Sinapis): 80%
Cc1oc(-c2ccccc2)nc1C1=C(O)C(C)(C)OC1=O [Example I-2-B-a-2]	–	–	–	–	–	–	–	logP (pH2) [1]: 3.43
Cc1sc(-c2ccc(Cl)cc2)nc1C1=C(O)C2(CCCOC2)NC1=O (stereo not shown) [Example I-1-A-a-6]	good activity	good activity	–	–	–	–	good activity	kill of aphids [6]: good activity; % damage Echinochloa (Echinochloa; 125 g ai/ha): 90%; % damage Avena fatua (Avena fatua [4]; 125 g ai/ha): 90%; % damage Alopecurus (Alopecurus; 125 g ai/ha): 90%; % damage sugar beet (sugar beet [7]; 125 g ai/ha): 0%; % damage Digitaria (Digitaria; 125 g ai/ha): 95%
CCOC1CCC2(CC1)NC(=O)C(c1nc(-c3ccc(Cl)cc3)sc1C)=C2O (single isomer, unassigned) [Example I-1-A-a-4]	good activity	good activity	100	100	95	95	good activity	% damage Setaria (Setaria [8]): 100%; % damage Abutilon (Abutilon): 80%
Cc1sc(-c2ccc(Cl)cc2)nc1C1=C(O)C(C)(C)OC1=O [Example I-2-A-a-2]	good activity	–	100	90	–	–	good activity	% damage Setaria (Setaria [9]): 100%; % damage Bromus (Bromus): 90%; % damage Lolium (Lolium): 100%; % damage oilseed rape (oilseed rape): 0%; % damage Avena fatua (Avena fatua [10]): 90%; % damage sugar beet (sugar beet [11]): 0%; nematicidal action (formation of galls) (Meloidogyne incognita): good activity; % damage Setaria (Setaria [8]): 95%; % damage Soya bean (Soya bean): 0%; % damage sugar beet (sugar beet [7]; 250 g ai/ha): 0%; % damage Digitaria (Digitaria; 250 g ai/ha): 90%
Cc1sc(-c2ccc(Cl)cc2)nc1C1=C(O)C2(CCOCC2)NC1=O [Example I-1-A-a-5]	good activity	good activity	100	–	80	90	good activity	kill of aphids [6]: good activity
